Like-named read-outs stand apart in the source and are kept apart here.
Key:
[1] = system: C6 cells co-cultured with C6-P450 cells; experiment: Co-culture assay (cell-mediated effect); format: cell-based, rat; conditions: 0.5 mM CPA; for inhibition at 500 µM: Rattus norvegicus, C6, 96 h, 4 days, read-out: decrease in the proliferation of C6 cells
Protocol: (§1) Co-culture assay: Co-cultures of C6-P450 and C6 cells were incubated in triplicate at different ratios (where 0, 10, 50, 90, and 100% of the cells were C6-P450 cells) to achieve a total number of 2×10^6 cells/10 cm dish. After 24 hours, 0.5 mM CPA was added and four days later, cells were counted as previously described. To compare the killing achieved by cell contact with that obtained by exposure to conditioned medium, the supernatant from each co-culture was harvested, filtered through 0.45 μm membrane filters, mixed in a 1:1 ratio with 5 mL of fresh medium and added to overnight cultures of C6 cells (2×10^6 cells/10 cm dish in triplicate). Four days later, C6 cells were washed, harvested and counted. To determine the specificity of the cell-mediated killing effect from the co-culture assays, C6 cells were incubated overnight with C6 cells that expressed the neomycin phosphotransferase gene (C6-Neo), with irradiated C6 cells, with irradiated C6-Neo, and with irradiated C6-P450 cells. γ-irradiation was performed by exposing cells to a total of 6000 rads emitted by a ^51 chromium source.

[2] = system: C6 cells; experiment: Conditioned medium from co-cultures added to naive C6 cells; format: cell-based, rat; conditions: CM from co-cultures with 0, 10, or 50% P450 2B1 cells after four-day CPA
Protocol: as §1

[3] = system: C6 cells; experiment: Cyclophosphamide dose-response assay; format: cell-based; conditions: Rattus norvegicus, up to 1 mM CPA, read-out: cells that survived incubation
Protocol: Two days later CPA was added to final concentrations of 0-100 μM. Five days after plating, the monolayers were rinsed twice with Hank's buffered saline (GIBCO) to remove dead cells. Monolayers were dispersed using trypsin-EDTA (GIBCO), and cell numbers were determined using a Coulter counter (Coulter Electronics Inc.).

[4] = system: C6 cells co-cultured with irradiated C6-P450 cells; experiment: Co-culture assay with irradiated cells; format: cell-based; conditions: Rattus norvegicus, light or radiation study, 96 h; 10% irradiated C6-P450 cells; 0.5 mM CPA, four days; read-out: decrease in the proliferation of C6 cells
Protocol: as §1

[5] = system: C6 cells co-cultured with C6-P450 cells across a filter; experiment: Secretory effect assay (insert system); format: cell-based; conditions: Rattus norvegicus
Protocol: Secretory effect assay: To assess the effect of conditioned medium, cells were co-cultured in dishes using the "insert" system (Falcon). This consists of tissue culture dishes (diameter=3.5 cm), which contain a micropore membrane (pore diameter=0.45 μm) that physically separates cell populations plated into the upper and lower chambers but permits the exchange of components in the medium. C6 cells (3.4×10^5 cells) were plated into the bottom chamber, while C6-P450 (3.4×10^5 cells) or C6-Neo cells (3.4×10^5 cells) were plated into the upper chamber (on top of the filter) in a total volume of 5 mL of medium. After an overnight incubation, 0.5 mM CPA was added to this medium. Four days later, the membrane on which the C6-P450 or C6-Neo cells were growing was removed and then the number of C6 glioma cells in the lower chamber was determined by counting with a Coulter apparatus. Surviving C6 cells were then replated at a density of 2×10^5 cells per 10 cm dish without CPA. Nine days later, these cells were trypsinized and counted using the Coulter apparatus.

[6] = system: C6VIKWT cells; experiment: Ganciclovir sensitivity, cell proliferation assay; format: cell-based; conditions: Rattus norvegicus, 96 h; four-day period; read-out: Fifty percent inhibition of growth
Protocol: (§2) Ganciclovir Sensitivity Assays in Culture: To measure the sensitivity of isolated cells, cells were plated in 24-well plates at a density of 10^4 cells per well. The next day, medium was replaced with medium containing ganciclovir (Cytovene, Burroughs Wellcome) at varying concentrations (0-1 μM) in quadruplicate. Four days later, cells were harvested using trypsin and counted using a cell counter (Coulter Electronics Ltd., Luton, United Kingdom). Cell growth is expressed as the percentage of cells compared to the number of cells without treatment (100%).

[7] = system: C6VIK cells; experiment: Ganciclovir sensitivity, cell proliferation assay; format: cell-based; conditions: Rattus norvegicus, 96 h; four-day period; read-out: Fifty percent inhibition of growth
Protocol: as §2

[8] = system: C6BBAG cells co-cultured with C6VIKWT cells; experiment: Delayed co-culture, ganciclovir sensitivity of recipient colonies; format: cell-based; conditions: Rattus norvegicus, ratio 1:2, read-out: ganciclovir concentration at which 50% of cells grew
Protocol: (§3) Donor C6VIK or C6VIKWT cells were then added to the cultures at a ratio of 1:2 (5×10^4 recipient cells: 10^5 donor cells). Control cultures consisted of C6BAG or C6BBAG cells alone, or C6BA6 or C6BBAG cells co-plated with "donor" C6BU1 or C6BWT cells, after delay, as above. After 10 days, ganciclovir was added at varying concentrations (0-300 μM) and cells were incubated for another 9-12 days with the drug. Cells were then fixed with 0.5% glutaraldehyde and stained histochemically for beta-galactosidase activity, as described (Price et al., Proc. Natl. Acad. Sci. USA 84:1141-1145 (1987)), and colonies were counted.

[9] = system: C6VIK cells; conditions: subcutaneous, nude mice; cited from earlier work
[10] = system: C6VIK-WT cells; experiment: GCV killing in culture; format: cell-based; conditions: Rattus norvegicus, read-out: GCV concentration at which 50% of cells were killed
Source text: (§4) Retroviral vectors can be used to transfer genes into the genome of dividing cells. In order to increase the efficiency of gene delivery and killing effect of ganciclovir, a new packaging line (C6VIK-WT) was developed by infecting C6VIK cells with an ecotropic wild-type retrovirus (MoMLV). See Mann et al., Cell 33:153-159 (1983); Price et al., Proc. Natl. Acad. Sci. USA 84:156-160 (1987); and Cepko, C., in Neuromethods, vol. 16, Molecular Neurobiological Techniques, Boulton et al., eds., The Humana Press, Clifton, N.J. (1989), pp. 177-219. Because tumor cells can migrate deep into brain parenchyme, they should be able to deliver the vector to tumor cells away from the tumor mass. In culture, 50% of C6VIK-WT cells were killed at 0.024 μM GCV, while it took 7.3 μM GCV to kill 50% of C6VIK cells. […] When C6VIK and C6VIK-WT were cultured with C6BAG cells (labelled with the lacZ gene and thus detectable by beta-galactosidase histochemistry), following GCV treatment substantially more C6BAG cells were killed when co-cultured with C6VIK-WT than with C6VIK cells. Presumably C6VIK-WT cells produce both wild-type retrovirus and retrovirus vectors containing the HSV-TK gene (neither of which are produced by C6VIK cells) and death of C6BAG cells might be mediated by retrovirus infection and/or self-generated GCV toxic products.

[11] = system: C6VIK cells; experiment: GCV killing in culture; format: cell-based; conditions: Rattus norvegicus, read-out: GCV concentration at which 50% of cells were killed
Source text: as §4

[12] = system: C6BAG cells co-cultured with C6VIKWT cells; experiment: Delayed co-culture, ganciclovir sensitivity of recipient colonies; format: cell-based, rat
Protocol: as §3

Row | Structure (SMILES) | Inhibition of proliferation of remaining C6 cells ([1]; 90% C6-P450 cells, four days) | inhibition at 500 µM ([1]; 10% of cells express the P450 gene) [%] | inhibition at 500 µM ([1]; 50% of cells contain the P450 gene) [%] | Inhibition of proliferation of C6 cells [2] | viability at 1000 µM [3] [%] | inhibition at 500 µM [4] [%] | inhibition at 500 µM ([5]; C6, 96 h, 0.5 mM CPA, 1:1 ratio, four days, read-out: decrease in the number of C6 cells) [%] | inhibition at 500 µM ([5]; C6, 216 h, replated without CPA, nine days, read-out: decrease in C6 cell number after trypsinization and replating) [%] | IC50 [6] [µM] | IC50 [7] [µM] | IC50 [8] [µM] | Tumor growth [9] | IC50 [10] [µM] | IC50 [11] [µM] | IC50 ([12]; Rattus norvegicus, ratio 1:2, read-out: ganciclovir concentration at which 50% of cells grew) [µM] | Survival of beta-galactosidase-positive recipient colonies ([12]; ratio 1:2)
1 | O=P1(N(CCCl)CCCl)NCCCO1 (stereo not shown) [cyclophosphamide] | complete inhibition | 75 | ~85 | no inhibition | ≥ 80 | 30 | ~50 | ~90 |  |  |  |  |  |  |  | 
2 | Nc1nc(O)c2ncn(COC(CO)CO)c2n1 [ganciclovir] |  |  |  |  |  |  |  |  | 0.0003 | 0.01 | 30 | inhibited tumor growth | 0.024 | 7.3 | 3 | almost complete ablation of the recipient cells
